The values below come from patent publication US8211483B2, “Composition comprising starch or dietary fiber from gramineae plant for prevention and treatment of ischemic diseases and degenerative brain disease” (Hypoxi Co., Ltd., priority 2007, dated 2012).

Series [1] relates to myocardial infarction-induced rat model. Kind of series: Myocardial infarction-induced rat model (LAD ischemia-reperfusion), oral administration. It counts as in vivo. The settings on record: for size of infarcted area reduced by: 10 mg/kg/day oral, vs control 50.6%, p<0.05, FIG. 5c; for IA (% AAR): 10 mg/kg/day with food from three days before ischemia, control 50.6%, FIG. 5c. How it is done:
The therapeutic efficacy of inventive starch and total dietary fiber on myocardial infarction was measured in myocardial infarction-induced rat model, using experiment rats prepared in Reference Example 1, in accordance with the procedure disclosed in the literature (Haisong J et al., Circulation, 97, pp 892-899, 1998), with minor modification.
SD rats prepared in Reference Example 1 were anesthetized with 10 mg/kg ketamine (Yuhan Corp., KOREA) and 5 mg/kg xylazine (Sigma, USA) and intubated endotracheally. The rats were connected to a respirator through a tracheotomy, and the heart was rapidly exteriorized through a left thoracotomy and pericardial incision. The upper region of left coronary artery (LAD) was ligated by passing a 5-0 prolene thread under LAD and tightening polyethylene tubing 50 (PE 50), resulting in ischemia. After 30 min of ischemia, 3 hours of reperfusion followed, after the tightened PE 50 was loosened. After the ischemia-reperfusion, the PE 50 was tightened again to induce ischemia, and then 2 ml of 1% Evans blue dye solution was infused intravenously to circulate whole body. Then the heart was isolated, cut into the width of 2-3 mm after the right atrium and right ventricle of the heart were removed. Then the stained (LV-AAR) and unstained area (AAR) of cross sectioned tissue was measured by using image analysis system (Quantity One 4.2, Bio-Rad, USA) to calculate the area at risk (AAR/LV, %). Then, the tissue was stained with 1% TTC (2,3,5-triphenyltetrazolium chloride, Sigma, USA) at 37° C. for 15 mins, fixed with 10% formalin solution. The infarcted area (IA/LV, %) was determined by measuring necrotic white area (IA) and total left ventricle area (LV). The ratio of IA to AAR of test samples and control group was compared to test efficacy.
The inventive starch, total dietary fiber, and representative components of the fiber mixed with food were administered orally, and the size of infarcted area was measured. To determine the proper dose with safety and maximum efficacy at the same time, the minimum dose calculated from the result obtained in Experimental Example 1 was set as a starting point, and the dose was increased according to two-fold increasing method, i.e., 100, 200 and 400 mg/kg.
Three days before the induction of ischemia, 400 mg/kg/day of HY6228 or inventive starch, or 10 mg/kg/day of inventive total dietary fiber, or 10 mg/kg/day of its components, such as arabinoxylan, beta-glucan, arabinose and xylose, was fed with 20 g of food with free access. After induction of myocardial infarction with 3 hours of reperfusion, the infarcted area was measured, the value of IA (% AAR) was calculated, and then efficacy of the inventive starch and total dietary fiber was compared with each other.

The next series concerns SH-SY5Y cells. As to the kind of experiment: MTT assay, beta-amyloid-induced cytotoxicity in SH-SY5Y cells. The format is cell-based, human. The settings on record: 15 microM beta-amyloid (alone 60.4%), p<0.05, FIG. 3e; for viability at 250 µg/mL: Homo sapiens, 250 microgram/ml, read-out: cell viability. How it is done:
To identify the neuroprotective effect of inventive crude extract, starch and total dietary fiber on the cytotoxicity induced by beta-amyloid, which is regarded as one of the main causes of Alzheimer's disease, the following MTT assay was performed by the procedure disclosed in the literature (Hoffman R. M., Cell Biology (Celis J E (Ed.), Vol. 1, pp 369-370, Academic Press, New York, 1994) with minor modification.
SH-SY5Y cells (human neuroblastoma cell line, ATCC CRL-2266, 4×10^4 cells/300 microliter/well) were seeded onto 48 well plates and incubated in Dulbecco's modified Eagle Medium/F12 90% medium (Invitrogen, USA) supplemented with penicillin G sodium (100 Units/L, Invitrogen, USA), streptomycin sulfate (100 mg/L, Invitrogen, USA) and 10% (w/v) fetal bovine serum (Invitrogen, USA); incubated at 37° C. in 5% CO2-95% air incubator for 48 hours. After changing the media, the cells were treated with beta-amyloid to the final concentrations of 0, 2.5, 7.5 and 25 microM for 24 hours in the absence (designated as Aβ25-35 alone group hereinafter) or presence with inventive starch isolated from Triticum aestivum L. (final concentration: 125 microgram/ml; designated as A25-35+SW group hereinafter) or soluble starch (final concentration: 125 microgram/ml; designated as A25-35+SS group hereinafter) which were made from 50 microgram/ml stock solutions in DMSO (See FIGS. 3a & 3b). After incubation, cells were treated with MTT solution (final concentration of 1 mg/ml) for 2 hours. The dark blue formazan in viable cells was dissolved in DMSO and absorbance at 540 nm was measured by a microplate reader (FLUOstar OPTIMA, BMG LABTECH, GERMANY).
Based on the above-mentioned result, to further examine the protective effects of the crude extract of Triticum aestivum L. or starches isolated from Gramnieae plants against the beta-amyloid-induced cytotoxicity, the concentration of beta-amyloid was fixed to 25 microM. The crude extract of Triticum aestivum L. (HY6228, shown as HY in FIG. 3c; 250 microgram/ml) and starches isolated from Gramnieae plants (SS, SC, SR and SW; 125 microgram/ml) were added thereto to incubation (See FIG. 3c). We also have examined the cell viability improving effect of total dietary fiber (TDF; 500, 1000 microgram/ml) in the presence of 10 microM of beta-amyloid (See FIG. 3d).
In addition, arabinoxylan (AX; 500 microgram/ml), arabinose (Ara; 250 microgram/ml), xylose (Xyl; 250 microgram/ml) and beta-glucan (b-glu; 20 microgram/ml) were added to the media in the presence of 15 microM beta-amyloid (See FIG. 3e).
(Tetrazolium assays rely on reduction of a dye to a coloured formazan, in cell work by metabolically active cells.)

The test system of series [2] is vascular dementia-induced rat model. As to the kind of experiment: Vascular dementia-induced rat model (BCCAO), water-maze test. The format is in vivo. The settings on record: 50 mg/kg fed for 1 week, FIG. 8b, 8c. As to the method: The therapeutic efficacy of inventive starch and total dietary fiber of the present invention on vascular dementia was measured in vascular dementia-induced rat model, using experiment rats prepared in Reference Example 1, in accordance with the procedure disclosed in the literature (Cho K O et al., J. Neurosci. Res., 83, pp 285-291, 2006), with minor modification.
The SD rats prepared in Reference Example 1 were anesthetized by inhalation using enflurane (Choongwae Pharm. Corp., KOREA). Two common carotid arteries were exposed by surgery and tied with thread using BCCAO (bilateral common carotid artery occlusion) method to reduce the blood flow rate into brain for 4 weeks. And then water-maze test disclosed in Experimental Example 6 was performed for 5 days.
7 days after the two common carotid arteries were tied, the rats were started to be fed with HY6228 (200 mg/kg), inventive starch (SW; 200 mg/kg), TDF (50 mg/kg) and arabinoxlyan (50 mg/kg) therewith for 1 week, for which the mean escape latency was measured.

In general, viability refers to the share of living cells, or the viability signal relative to a control. Take `O=C[C@@H](O)[C@H](O)[C@H](O)CO` [arabinose]: in series [1], the “size of infarcted area reduced by” value is recorded as 14.2% and the “IA (% AAR)” value was determined as 43.4%. Also, the viability at 250 µg/mL with SH-SY5Y cells is 71.1%.
In the same order, the values of `O=C[C@H](O)[C@@H](O)[C@H](O)CO` [xylose] are 16.8%, 42.1% and 72.1%.
A word on the cell viability: it is a read-out of living cells in per cent, often relative to untreated cells. Read a high cell viability as better survival. With arabinoxylan, in series [1], the “size of infarcted area reduced by” value turned out to be 16.4% and the “IA (% AAR)” value is 42.3%. For the same compound, in the series on SH-SY5Y cells (500 microgram/ml), the cell viability was found to be 75.5%. Further, in series [2], the mean escape latency entry is “reduced the mean escape latency”.
Regarding beta-glucan, in series [1], the “size of infarcted area reduced by” value is recorded as 13.4% and the “IA (% AAR)” value is 43.8%. In the series on SH-SY5Y cells (20 microgram/ml), this compound yielded a cell viability of 70%.
